What was measured:
[1] = Long-term stability experiment of amorphous substance; assay type: physicochemical; conditions: for purity (HPLC): Long term
Procedure: (§1) Referring to ICH Q1A stability testing of new drug substances and products, the amorphous substance of the compound of formula I prepared in example 1 was subjected to a long-term stability experiment (experimental condition: 25±2° C., RH 60%=5%) and an accelerated stability experiment (experimental condition: 40±2° C., RH 75%=5%). The purity of the sample at different times was detected by HPLC under condition 2 to evaluate the physicochemical stability of the amorphous substance of the compound of formula I. The results were as shown in Table 18.
(§2) Condition 2: • Instruments: Agilent 1260; • Chromatographic column: C18 (150 mm×4.6 mm×3.5 μm); • column temperature: 45° C.; • Mobile phase: binary mobile phase system, mobile phase A was a 10 mM aqueous ammonium acetate solution (preparation method: ammonium acetate was added into purified water, and mixed evenly, and pH value was adjusted to 4.50±0.05 with acetic acid), mobile phase B was acetonitrile; • Elution mode: gradient elution, with specific procedures as shown in Table 17; • flow rate: 1.0 mL/min; • Injection volume: 5 μL; • Detection wavelength: 270 nm; • Data acquisition: OpenLab CDS2 software.

[2] = Accelerated stability experiment of amorphous substance; assay type: physicochemical; conditions: Acceleration
Procedure: as §1, §2

Cc1ncsc1-c1ccc(CNC(=O)[C@@H]2C[C@@H](O)CN2C(=O)[C@@H](NC(=O)COCCCCOc2ccc(-c3ccc(N4C(=S)N(c5ccc(C#N)c(C(F)(F)F)c5F)C(=O)C4(C)C)cn3)cc2)C(C)(C)C)cc1
purity (HPLC) ([1]; 3 months): 99.36% | purity (HPLC) ([1]; 6 months): 99.37% | purity (HPLC) ([1]; 9 months): 99.29% | purity (HPLC) ([1]; 25±2° C., RH 60%=5%, 0 month): 99.25% | stability ([1]; long-term, accelerated and high-temperature stability experiments): excellent stability | purity (HPLC) ([2]; 1 months): 99.41% | purity (HPLC) ([2]; 3 months): 99.35% | purity (HPLC) ([2]; 6 months): 99.36% | purity (HPLC) ([2]; 40±2° C., RH 75%=5%, 0 month): 99.25%

From patent US20250129062A1, “AMORPHOUS SUBSTANCES, CRYSTALS, PHARMACEUTICAL COMPOSITIONS, PREPARATION METHODS AND USES OF THIOHYDANTOIN COMPOUND OR PHARMACEUTICALLY ACCEPTABLE SALT THEREOF” (SUZHOU KINTOR PHARMACEUTICALS, INC., priority 2021, published 2025)
